Assay: Half-life data for 2-chloro-2-alkyl substituted peroxyesters (0.2M in Benzene)
Type: physicochemical
Settings: for Half-Life: 200000 µM
Description: The following Table III illustrates the desirable half lifes obtainable with compositions of this invention:
HALF-LIFE DATA FOR SELECTED 2-CHLORO-2-ALKYL
SUBSTITUTED PEROXYESTERS (0.2M in Benzene)

SMILES	10 Hr Half-Life Temp [°C]	Half-Life (55 °C.) [h]	Half-Life (65 °C.) [h]	Half-Life (75 °C.) [h]	Half-Life (80 °C.) [h]	Half-Life (47.5 °C.) [h]	Half-Life (50 °C.) [h]
CCCCC(Cl)(CC)C(=O)OOC(C)(C)C (stereo not drawn) [TBPCEH, t-Butyl peroxy 2-chloro-2-ethyl hexanoate]	56.2	11.55	3.72	1.16	0.68	–	–
CCC(Cl)(CC)C(=O)OOC(C)(C)CC(C)(C)C [TMBPCEB, 1,1,3,3 Tetramethylbutylperoxy-2-chloro-2-ethylbutyrate]	–	9.00	2.38	–	–	23.22	16.84
